# Measured values taken from patent publication US20140315933A1, “CHEMICAL COMPOUNDS” (Pfizer Limited, priority 2013, published 2014).
# Counter-ions that a name gives are not always drawn.
# Target: T1, URAT-1 transporter (Homo sapiens, UniProt Q96S37)
# T1 construct: expressed in transfected cells
# Assay: URAT-1 inhibitor activity: [14C]-uric acid uptake into CHO-URAT1(L)GFP#8 (CHO#8) cells, scintillation proximity
# Format: cell-based
# Conditions: not given
# Text: The nucleotide sequence for the long isoform of URAT1 (NM_144585) was C-terminally fused to that of enhanced green fluorescent protein (eGFP) (hereinafter referred to as URAT1(L)GFP). The combined sequence was codon-optimised and custom synthesized. The synthesized sequence was generated in pDONR221 Gateway entry vector (Invitrogen Life Technologies) prior to cloning in pLenti6.3/V5 Gateway destination vector (Invitrogen Life Technologies).
# Lentiviral particles were generated according to ViraPower HiPerform expression system procedure (Invitrogen Life Technologies) and used to transduce CHO cells. Blasticidin selection enabled the generation of a stable clonal pool of cells, confirmed by expression of GFP and V5 epitope. The clonal pools were sorted using fluorescence-activated cell sorting (FACS) on the basis of GFP expression with the gating set at the top 50% of expression into single cells which were subsequently expanded to generate clonal lines. […] This cell line was used for all screening activities and is referred to as CHO-URAT1(L)GFP#8 or CHO#8.
# The potency of the compounds of formula (I) as inhibitors of the URAT-1 transporter was determined as follows.
# CHO#8 cells were cultured in cell line maintenance flasks in medium consisting of Dulbecco's modified Eagle medium (DMEM) with high glucose and sodium pyruvate (4.5 g of glucose per litre, Invitrogen Life Technologies), supplemented with heat-inactivated foetal bovine serum (FBC, 10% v/v), 1×NEAA (non-essential amino acids) and blasticidin (10 μg/ml). Cultures were grown in 175 cm^2 tissue culture flasks in a humidified incubator at approximately 37° C. in approximately 95% air/5% CO2. Near confluent CHO#8 cell cultures were harvested by trypsinisation, re-suspended in culture medium and the process was repeated once or twice weekly to provide sufficient cells for use.
# Assay ready flasks were generated by the same method, except the cells were not cultured in blasticidin.
# Assay ready frozen cells were generated by freezing 40,000,000 cells in 1 ml of FBS (without blasticidin) containing 10% DMSO per vial. One vial was sufficient for 5 assay plates. Each vial was thawed rapidly to 37° C., washed and re-suspended in pre-warmed culture medium for seeding onto assay plates.
# CHO#8 cells were seeded onto Cytostar™ 96-well plates at a density of […]. The cells were cultured for 1 day at approximately 37° C. in a humidified incubator containing approximately 5% CO2 in air. After approximately 24 hours culture, cells were used for uptake experiments.
# On the day of assay, culture medium was removed from the wells and the cells were washed once with 50 μL of chloride-containing buffer (136.7 mM NaCl, 5.36 mM KCl, 0.952 mM CaCl2, 0.441 mM KH2PO4, 0.812 mM MgSO4, 5.6 mM D-glucose, 0.383 mM Na2HPO4.2H2O, 10 mM HEPES, pH 7.4 with NaOH). The cells were pre-incubated with another 50 μL of chloride-containing buffer for one hour at approximately 37° C. in a humidified incubator containing approximately 5% CO2 in air.
# Assay compound plates were prepared by diluting the compounds of formula (I) with chloride-free buffer (125 mM Na-gluconate, 4.8 mM K-gluconate, 1.3 mM Ca-gluconate, 1.2 mM KH2PO4, 1.2 mM MgSO4, 5.6 mM D-glucose, 25 mM HEPES, pH 7.4 with NaOH) in 100% DMSO to a final concentration of 1% DMSO. [^14C]-Uric Uric acid working stock was made by addition of radiolabeled compound to a final concentration of 120 nM in chloride-free buffer. In all wells, the final assay concentration of solvent (DMSO) was 0.25%; the final assay concentration of [^14C]-uric acid was 30 nM in chloride-free buffer and the final compound of formula (I) concentrations ranged from 0 to 10 μM.
# After pre-incubation, cells were washed with 50 μL of chloride-free buffer and another 50 μL of chloride-free buffer was added. […]
row,Molecule,IC50
1,"Cn1ccc(NS(=O)(=O)c2ccc(Oc3ccc(C#N)c(Cl)c3)c(C#N)c2)n1 [Example 4, 4-(3-chloro-4-cyanophenoxy)-3-cyano-N-(1-methyl-1H-pyrazol-3-yl)benzenesulfonamide diethylamine salt]",3360 nM
2,"Cc1cc(NS(=O)(=O)c2ccc(Oc3ccc(C#N)c(Cl)c3)c(C#N)c2)no1 [Example 5, 4-(3-chloro-4-cyanophenoxy)-3-cyano-N-(5-methyl-1,2-oxazol-3-yl)benzenesulfonamide diethylamine salt]",> 10000 nM
3,"O=S(=O)(Nc1nccs1)c1ccc(Oc2ccc(C(F)(F)F)cc2C(F)(F)F)c(F)c1 [Example 6, 4-[2,4-bis(trifluoromethyl)phenoxy]-3-fluoro-N-(1,3-thiazol-2-yl)benzenesulfonamide]",> 10000 nM
4,"N#Cc1cc(S(=O)(=O)Nc2nccs2)ccc1Oc1ccc(Br)cc1CO [Example 8, 4-[4-bromo-2-(hydroxymethyl)phenoxy]-3-cyano-N-(1,3-thiazol-2-yl)benzenesulfonamide]",2140 nM
5,"COc1cc(Cl)c(Cl)cc1Oc1ccc(S(=O)(=O)Nc2ncns2)cc1C#N [Example 9, 3-cyano-4-(4,5-dichloro-2-methoxyphenoxy)-N-(1,2,4-thiadiazol-5-yl)benzenesulfonamide]",> 2810 nM
6,"COc1ccc(Cl)cc1Oc1ccc(S(=O)(=O)Nc2ncns2)cc1C#N [Example 10, 4-(5-chloro-2-methoxyphenoxy)-3-cyano-N-(1,2,4-thiadiazol-5-yl)benzenesulfonamide diethylamine salt]",> 5760 nM
7,"CC(C)c1cccc(Oc2ccc(S(=O)(=O)Nc3ncns3)cc2C#N)c1 [Example 14, 3-cyano-4-[3-(propan-2-yl)phenoxy]-N-(1,2,4-thiadiazol-5-yl)benzenesulfonamide diethylamine salt]",> 2900 nM
8,"N#Cc1ccc(Oc2ccc(S(=O)(=O)Nc3ncns3)cc2C#N)cc1 [Example 15, 3-cyano-4-(4-cyanophenoxy)-N-(1,2,4-thiadiazol-5-yl)benzenesulfonamide diethylamine salt]",> 7370 nM
9,"COc1ccncc1Oc1ccc(S(=O)(=O)Nc2ncns2)cc1C#N [Example 18, 3-cyano-4-[(4-methoxypyridin-3-yl)oxy]-N-(1,2,4-thiadiazol-5-yl)benzenesulfonamide]",> 10000 nM
10,"N#Cc1cc(S(=O)(=O)Nc2ncns2)ccc1Oc1cncc(Cl)c1 [Example 19, 4-[(5-chloropyridin-3-yl)oxy]-3-cyano-N-(1,2,4-thiadiazol-5-yl)benzenesulfonamide]",> 10000 nM
11,"COc1ccc(Oc2ccc(S(=O)(=O)Nc3ncns3)cc2C#N)cn1 [Example 20, 3-cyano-4-[(6-methoxypyridin-3-yl)oxy]-N-(1,2,4-thiadiazol-5-yl)benzenesulfonamide]",> 7520 nM
12,"N#Cc1cc(S(=O)(=O)Nc2ncns2)ccc1Oc1ccc(C(F)(F)F)nc1 [Example 21, 3-cyano-N-(1,2,4-thiadiazol-5-yl)-4-{[6-(trifluoromethyl)pyridin-3-yl]oxy}benzenesulfonamide]",> 10000 nM
13,"N#Cc1cc(Cl)ccc1Oc1ccc(S(=O)(=O)Nc2ncns2)cc1C#N [Example 22, 4-(4-chloro-2-cyanophenoxy)-3-cyano-N-(1,2,4-thiadiazol-5-yl)benzenesulfonamide]",3160 nM
14,"N#Cc1ccc(Oc2ccc(S(=O)(=O)Nc3ncns3)cc2C#N)c(OC(F)F)c1 [Example 23, 3-cyano-4-[4-cyano-2-(difluoromethoxy)phenoxy]-N-(1,2,4-thiadiazol-5-yl)benzenesulfonamide]",> 10000 nM
15,"N#Cc1ccc(OC(F)F)c(Oc2ccc(S(=O)(=O)Nc3ncns3)cc2C#N)c1 [Example 24, 3-cyano-4-[5-cyano-2-(difluoromethoxy)phenoxy]-N-(1,2,4-thiadiazol-5-yl)benzenesulfonamide diethylamine salt]",> 10000 nM
16,"COc1cc(C(F)(F)F)ccc1Oc1ccc(S(=O)(=O)Nc2ncns2)cc1C#N [Example 25, 3-cyano-4-[2-methoxy-4-(trifluoromethyl)phenoxy]-N-(1,2,4-thiadiazol-5-yl)benzenesulfonamide diethylamine salt]",> 10000 nM
17,"COc1cc(OC(F)(F)F)ccc1Oc1ccc(S(=O)(=O)Nc2ncns2)cc1C#N [Example 27, 3-cyano-4-[2-methoxy-4-(trifluoromethoxy)phenoxy]-N-(1,2,4-thiadiazol-5-yl)benzenesulfonamide diethylamine salt]",> 10000 nM
18,"COc1ccc(OC(F)(F)F)cc1Oc1ccc(S(=O)(=O)Nc2ncns2)cc1C#N [Example 28, 3-cyano-4-[2-methoxy-5-(trifluoromethoxy)phenoxy]-N-(1,2,4-thiadiazol-5-yl)benzenesulfonamide diethylamine salt]",> 7450 nM

# More lines, now with the values ahead:
row,IC50,Molecule
1,58 nM,"N#Cc1ccc(Oc2ccc(S(=O)(=O)Nc3nccs3)cc2C#N)cc1Cl [Example 1, 4-(3-chloro-4-cyanophenoxy)-3-cyano-N-(1,3-thiazol-2-yl)benzenesulfonamide]"
2,64 nM,"CCc1cc(F)ccc1Oc1ccc(S(=O)(=O)Nc2ncns2)cc1CC [Example 2, 3-ethyl-4-(2-ethyl-4-fluorophenoxy)-N-(1,2,4-thiadiazol-5-yl)benzenesulfonamide diethylamine salt]"
3,69 nM,"CCc1cc(F)ccc1Oc1ccc(S(=O)(=O)Nc2ncns2)cc1I [Example 3, 4-(2-ethyl-4-fluorophenoxy)-3-iodo-N-(1,2,4-thiadiazol-5-yl)benzenesulfonamide]"
4,141 nM,"N#Cc1cc(S(=O)(=O)Nc2nccs2)ccc1Oc1ccc(CO)cc1F [Example 7, 3-cyano-4-[2-fluoro-4-(hydroxymethyl)phenoxy]-N-(1,3-thiazol-2-yl)benzenesulfonamide, diethylamine salt]"
5,1380 nM,"CC(C)Oc1ccc(Cl)cc1Oc1ccc(S(=O)(=O)Nc2ncns2)cc1C#N [Example 11, 4-[5-chloro-2-(propan-2-yloxy)phenoxy]-3-cyano-N-(1,2,4-thiadiazol-5-yl)benzenesulfonamide diethylamine salt]"
6,354 nM,"CCOc1cc(Cl)ccc1Oc1ccc(S(=O)(=O)Nc2ncns2)cc1C#N [Example 12, 4-(4-chloro-2-ethoxyphenoxy)-3-cyano-N-(1,2,4-thiadiazol-5-yl)benzenesulfonamide]"
7,1270 nM,"N#Cc1cc(S(=O)(=O)Nc2ncns2)ccc1Oc1ccc(Cl)cc1 [Example 13, 4-(4-chlorophenoxy)-3-cyano-N-(1,2,4-thiadiazol-5-yl)benzenesulfonamide diethylamine salt]"
8,428 nM,"N#Cc1cc(S(=O)(=O)Nc2ncns2)ccc1Oc1ccc(Cl)cc1Cl [Example 16, 3-cyano-4-(4,6-dichlorophenoxy)-N-(1,2,4-thiadiazol-5-yl)benzenesulfonamide]"
9,161 nM,"CCOc1ncccc1Oc1ccc(S(=O)(=O)Nc2ncns2)cc1C#N [Example 17, 3-cyano-4-[(2-ethoxypyridin-3-yl)oxy]-N-(1,2,4-thiadiazol-5-yl)benzenesulfonamide diethylamine salt]"
10,875 nM,"COc1cc(Cl)cc(Cl)c1Oc1ccc(S(=O)(=O)Nc2ncns2)cc1C#N [Example 26, 3-cyano-4-(2,4-dichloro-6-methoxyphenoxy)-N-(1,2,4-thiadiazol-5-yl)benzenesulfonamide diethylamine salt]"

# Same assay, conditions: inhibition of [14C]-uric acid (30 nM) uptake into CHO#8 cells; compound 0 to 10 μM; 4 parameter logistic fit
row,Molecule,IC50
1,"3-chloro-4-(4-chlorophenoxy)-N-(1,2,4-thiadiazol-5-yl)benzenesulfonamide diethylamine salt [Example 62]",722 nM
2,"5-chloro-4-(3,4-difluorophenoxy)-2-fluoro-N-(1,3-thiazol-4-yl)benzenesulfonamide [compound 230]",747 nM
